According to patent US12187723B2 (BRISTOL-MYERS SQUIBB COMPANY, priority 2019, dated 2025):

What was measured:
[1] = biological target: T1, human TLR9 (Homo sapiens, UniProt Q9NR96); experiment: TLR9 inhibition reporter assay (HEK-Blue SEAP); type: cell-based; conditions: HEK-Blue cells overexpressing human TLR9, ODN2006 5 nM, 22 hour incubation
T1 construct: host or cells: HEK-Blue cells
T1 sequence (Q9NR96 26-1032): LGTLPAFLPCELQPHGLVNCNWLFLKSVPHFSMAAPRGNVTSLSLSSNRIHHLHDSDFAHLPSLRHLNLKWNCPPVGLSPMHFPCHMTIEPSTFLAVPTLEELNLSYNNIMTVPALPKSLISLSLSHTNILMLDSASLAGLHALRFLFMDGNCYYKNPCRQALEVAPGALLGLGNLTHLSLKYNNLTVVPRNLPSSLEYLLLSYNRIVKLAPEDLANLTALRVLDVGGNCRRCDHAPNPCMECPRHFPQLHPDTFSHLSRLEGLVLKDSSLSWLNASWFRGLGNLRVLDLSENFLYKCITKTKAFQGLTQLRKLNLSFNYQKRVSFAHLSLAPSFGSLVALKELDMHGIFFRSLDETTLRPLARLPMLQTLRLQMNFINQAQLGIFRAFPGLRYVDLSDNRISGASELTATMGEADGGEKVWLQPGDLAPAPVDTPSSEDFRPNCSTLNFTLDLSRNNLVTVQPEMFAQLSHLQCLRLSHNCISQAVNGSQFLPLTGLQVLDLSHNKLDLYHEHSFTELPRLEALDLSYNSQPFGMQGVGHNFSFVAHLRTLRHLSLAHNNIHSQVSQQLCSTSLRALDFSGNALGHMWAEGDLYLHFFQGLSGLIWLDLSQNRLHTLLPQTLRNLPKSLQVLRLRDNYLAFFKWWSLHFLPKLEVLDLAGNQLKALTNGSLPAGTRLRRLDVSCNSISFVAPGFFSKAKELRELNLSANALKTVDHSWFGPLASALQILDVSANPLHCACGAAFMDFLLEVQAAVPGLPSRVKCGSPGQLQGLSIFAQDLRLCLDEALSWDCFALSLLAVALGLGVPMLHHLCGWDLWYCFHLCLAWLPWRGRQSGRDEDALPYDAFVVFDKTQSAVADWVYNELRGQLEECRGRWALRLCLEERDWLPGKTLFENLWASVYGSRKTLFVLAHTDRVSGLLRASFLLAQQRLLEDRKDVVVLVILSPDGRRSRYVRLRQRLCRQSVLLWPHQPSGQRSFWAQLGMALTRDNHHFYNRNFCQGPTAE
How it was run: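 Dose–response from 0.05 nM to 50 μM was run in HEK-Blue human TLR7, TLR8 and TLR9 reporter cells. After 30 min at room temperature with compound, ligand was added (TLR7 gardiquimod 7.5 μM; TLR8 R848 15.9 μM; TLR9 ODN2006 5 nM) and SEAP measured next day, at 22 h.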

[2] = biological target: T2, human TLR7 (Homo sapiens, UniProt Q9NYK1); experiment: TLR7 inhibition reporter assay (HEK-Blue SEAP); type: cell-based; conditions: HEK-Blue cells overexpressing human TLR7, gardiquimod 7.5 μM, 22 hour incubation
T2 construct: host or cells: HEK-Blue cells
T2 sequence (Q9NYK1 27-1049): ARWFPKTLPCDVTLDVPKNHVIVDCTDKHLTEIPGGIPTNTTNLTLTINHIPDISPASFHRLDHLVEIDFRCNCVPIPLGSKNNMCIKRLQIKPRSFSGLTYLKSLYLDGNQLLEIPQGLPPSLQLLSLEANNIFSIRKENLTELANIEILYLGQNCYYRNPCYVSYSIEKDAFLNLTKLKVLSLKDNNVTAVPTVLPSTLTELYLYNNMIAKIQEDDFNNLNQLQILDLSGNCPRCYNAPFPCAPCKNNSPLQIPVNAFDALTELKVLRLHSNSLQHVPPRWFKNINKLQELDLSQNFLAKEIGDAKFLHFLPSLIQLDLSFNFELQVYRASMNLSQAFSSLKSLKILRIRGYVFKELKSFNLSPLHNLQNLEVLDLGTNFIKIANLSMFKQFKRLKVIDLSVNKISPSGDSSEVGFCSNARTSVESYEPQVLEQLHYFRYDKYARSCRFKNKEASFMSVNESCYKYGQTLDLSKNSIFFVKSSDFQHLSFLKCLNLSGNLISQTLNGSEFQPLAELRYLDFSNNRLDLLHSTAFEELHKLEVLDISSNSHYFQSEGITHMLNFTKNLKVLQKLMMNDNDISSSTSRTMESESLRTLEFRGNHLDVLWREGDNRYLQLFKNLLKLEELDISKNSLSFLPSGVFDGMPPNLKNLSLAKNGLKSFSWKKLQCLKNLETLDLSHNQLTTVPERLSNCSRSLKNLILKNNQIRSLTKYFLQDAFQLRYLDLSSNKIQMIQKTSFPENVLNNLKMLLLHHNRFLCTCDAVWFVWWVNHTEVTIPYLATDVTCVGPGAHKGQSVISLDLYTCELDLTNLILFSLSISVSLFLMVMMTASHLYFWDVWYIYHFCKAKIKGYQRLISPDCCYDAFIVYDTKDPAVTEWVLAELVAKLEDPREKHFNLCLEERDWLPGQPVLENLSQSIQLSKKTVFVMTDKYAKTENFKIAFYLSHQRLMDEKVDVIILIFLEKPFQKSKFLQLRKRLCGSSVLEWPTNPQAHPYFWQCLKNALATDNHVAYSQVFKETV
How it was run: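 In this cell reporter format, test compounds at 0.05 nM-50 μM final incubate 22 h with seeded cells (TLR7 15000, TLR8 20,000 per well). SEAP read-out by HEK-Blue Detection medium yields % inhibition relative to agonist/DMSO and known-inhibitor wells.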

Structure (SMILES)	IC50 [1] [nM]	IC50 [2] [nM]
CCN1CCC(n2c(=O)[nH]c3cc(-c4cc(C)c5ncnn5c4)c(C)cc32)CC1 [Example 6, 1-(1-ethylpiperidin-4-yl)-6-methyl-5-(8-methyl-[1,2,4]triazolo[1,5-a]pyridin-6-yl)-1,3-dihydro-2H-benzo[d]imidazol-2-one]	871	38.7
Cc1cc2c(cc1-c1cc(C)c3ncnn3c1)[nH]c(=O)n2C1CCN(C(=O)CN(C)C)CC1 [Example 101, 1-(1-(dimethylglycyl)piperidin-4-yl)-6-methyl-5-(8-methyl-[1,2,4]triazolo[1,5-a]pyridin-6-yl)-1,3-dihydro-2H-benzo[d]imidazol-2-one]	2580	173
CCC(CC)CN1CCC[C@@H](n2c(=O)[nH]c3cc(-c4cc(OC)c5ncnn5c4)c(C(C)C)cc32)C1 [Example 148, (R)-1-(1-(2-ethylbutyl)piperidin-3-yl)-6-isopropyl-5-(8-methoxy-[1,2,4]triazolo[1,5-a]pyridin-6-yl)-1,3-dihydro-2H-benzo[d]imidazol-2-one]	9610	0.49
COc1cc(-c2cc3[nH]c(=O)n([C@@H]4CCCN(C5CCOCC5)C4)c3cc2C(C)C)cn2ncnc12 [Example 143, (R)-6-isopropyl-5-(8-methoxy-[1,2,4]triazolo[1,5-a]pyridin-6-yl)-1-(1-(tetrahydro-2H-pyran-4-yl)piperidin-3-yl)-1,3-dihydro-2H-benzo[d]imidazol-2-one]	10200	3.35
CCC(CC)CN1CCC[C@@H](n2c(=O)[nH]c3cc(-c4cn5ncnc5c(C)c4C)c(C(C)C)cc32)C1 [Example 151, (R)-5-(7,8-dimethyl-[1,2,4]triazolo[1,5-a]pyridin-6-yl)-1-(1-(2-ethylbutyl)piperidin-3-yl)-6-isopropyl-1,3-dihydro-2H-benzo[d]imidazol-2-one]	17700	11
COc1cc(-c2cc3[nH]c(=O)n(C4CCN(C5CCOCC5)CC4)c3cc2C(C)C)cn2ncnc12 [Example 158, 6-isopropyl-5-(8-methoxy-[1,2,4]triazolo[1,5-a]pyridin-6-yl)-1-(1-(tetrahydro-2H-pyran-4-yl)piperidin-4-yl)-1,3-dihydro-2H-benzo[d]imidazol-2-one]	21400	11.2
COc1cc(-c2cc3[nH]c(=O)n([C@@H]4CCCN(CC5CCOCC5)C4)c3cc2C(F)(F)F)cn2ncnc12 [Example 112, (R)-5-(8-methoxy-[1,2,4]triazolo[1,5-a]pyridin-6-yl)-1-(1-((tetrahydro-2H-pyran-4-yl)methyl)piperidin-3-yl)-6-(trifluoromethyl)-1,3-dihydro-2H-benzo[d]imidazol-2-one]	12700	30.8
COc1cc(-c2cc3[nH]c(=O)n([C@@H]4CCCN(C5COC5)C4)c3cc2C(C)C)cn2ncnc12 [Example 135, (R)-6-isopropyl-5-(8-methoxy-[1,2,4]triazolo[1,5-a]pyridin-6-yl)-1-(1-(oxetan-3-yl)piperidin-3-yl)-1,3-dihydro-2H-benzo[d]imidazol-2-one]	> 50000	26.3
COc1cc(-c2cc3[nH]c(=O)n([C@@H]4CCCN(CC5CCOCC5)C4)c3cc2C(C)C)cn2ncnc12 [Example 139, (R)-6-isopropyl-5-(8-methoxy-[1,2,4]triazolo[1,5-a]pyridin-6-yl)-1-(1-((tetrahydro-2H-pyran-4-yl)methyl)piperidin-3-yl)-1,3-dihydro-2H-benzo[d]imidazol-2-one]	7810	0.76
COc1cc(-c2cc3[nH]c(=O)n([C@H]4CCCN(C5CCOCC5)C4)c3cc2C(C)C)cn2ncnc12 [Example 124, (S)-6-isopropyl-5-(8-methoxy-[1,2,4]triazolo[1,5-a]pyridin-6-yl)-1-(1-(tetrahydro-2H-pyran-4-yl)piperidin-3-yl)-1,3-dihydro-2H-benzo[d]imidazol-2-one]	20800	63.8
CCN1CCC[C@@H](n2c(=O)[nH]c3cc(-c4cc(OC)c5ncnn5c4)c(C(F)(F)F)cc32)C1 [Example 110, (R)-1-(1-ethylpiperidin-3-yl)-5-(8-methoxy-[1,2,4]triazolo[1,5-a]pyridin-6-yl)-6-(trifluoromethyl)-1,3-dihydro-2H-benzo[d]imidazol-2-one]	7820	16.8
Cc1cc(-c2cc(C)c3ncnn3c2)cc2[nH]c(=O)n(C3CCN(C(C)C)CC3)c12 [Example 107, 1-(1-isopropylpiperidin-4-yl)-7-methyl-5-(8-methyl-[1,2,4]triazolo[1,5-a]pyridin-6-yl)-1,3-dihydro-2H-benzo[d]imidazol-2-one]	2990	32.9

The next lines start with the values.

IC50 [1] [nM]	IC50 [2] [nM]	Structure (SMILES)
13600	28.6	CCCN1CCC[C@H](n2c(=O)[nH]c3cc(-c4cc(OC)c5ncnn5c4)c(C(C)C)cc32)C1 [Example 121, (S)-6-isopropyl-5-(8-methoxy-[1,2,4]triazolo[1,5-a]pyridin-6-yl)-1-(1-propylpiperidin-3-yl)-1,3-dihydro-2H-benzo[d]imidazol-2-one]
7940	399	COc1cc(-c2cc3[nH]c(=O)n(C4CCCN(C(=O)CN(C)C)C4)c3cc2C)cn2ncnc12 (stereo not shown) [Example 105, 1-(1-(dimethylglycyl)piperidin-3-yl)-5-(8-methoxy-[1,2,4]triazolo[1,5-a]pyridin-6-yl)-6-methyl-1,3-dihydro-2H-benzo[d]imidazol-2-one]
6460	1.3	COc1cc(-c2cc3[nH]c(=O)n([C@@H]4CCCN(CC5CCC5)C4)c3cc2C(C)C)cn2ncnc12 [Example 140, (R)-1-(1-(cyclobutylmethyl)piperidin-3-yl)-6-isopropyl-5-(8-methoxy-[1,2,4]triazolo[1,5-a]pyridin-6-yl)-1,3-dihydro-2H-benzo[d]imidazol-2-one]
3880	0.12	COc1cc(-c2cc3[nH]c(=O)n([C@@H]4CCCN(CC(C)C)C4)c3cc2C(C)C)cn2ncnc12 [Example 141, (R)-1-(1-isobutylpiperidin-3-yl)-6-isopropyl-5-(8-methoxy-[1,2,4]triazolo[1,5-a]pyridin-6-yl)-1,3-dihydro-2H-benzo[d]imidazol-2-one]
16600	3.08	CCc1cc2c(cc1-c1cc(OC)c3ncnn3c1)[nH]c(=O)n2[C@H]1CC[C@@H](NC(C)C)CC1 [Example 167, 6-ethyl-1-((1s,4s)-4-(isopropylamino)cyclohexyl)-5-(8-methoxy-[1,2,4]triazolo[1,5-a]pyridin-6-yl)-1,3-dihydro-2H-benzo[d]imidazol-2-one]
